Patent US9193714B2, “Fluorinated estrogen receptor modulators and uses thereof” (priority 2011, dated 2015)
Like-named read-outs stand apart in the source and are kept apart here.

Columns and labels:
[1] = system: MCF-7 cells; experiment: Breast Cancer Cell Viability Assay (MCF7 Viability Assay); type: cell-based; conditions: for IC50: Homo sapiens, MCF7, 120 h, read-out: MCF7 Viability Assay IC50
Method: MCF-7 cells were adjusted to a concentration of 20,000 cells per mL in RPMI containing 10% FBS and 20 mM HEPES. 16 microliters of the cell suspension (320 cells) was added to each well of a 384 well plate, and the cells were incubated overnight to allow the cells to adhere. The following day an eleven point, serial semilog dilution of each compound was added to the cells in 16 μL at a final concentration ranging from 0.3-0.000003 μM. After 5 days' compound exposure, 16 μL of CellTiter-GLo (Promega, Madison Wis.) was added to the cells the relative luminescence units (RLUs) of each well was determined. CellTiter-Glo added to 32 μL of medium without cells was used to obtain a background value. The Percent viability of each sample was determined as follows: (RLU sample-RLU background/RLU untreated cells-RLU background)×100=% viability.

[2] = target: T1, ER-α (Homo sapiens, UniProt P03372); experiment: Breast Cancer Cell ER-α in Cell Western Assay (SP1); type: cell-based; conditions: MCF7, read-out: ER In-Cell Western Assay (SP1); Max Response
T1 construct: endogenous in cells; host or cells: MCF-7
T1 sequence (P03372 whole entry): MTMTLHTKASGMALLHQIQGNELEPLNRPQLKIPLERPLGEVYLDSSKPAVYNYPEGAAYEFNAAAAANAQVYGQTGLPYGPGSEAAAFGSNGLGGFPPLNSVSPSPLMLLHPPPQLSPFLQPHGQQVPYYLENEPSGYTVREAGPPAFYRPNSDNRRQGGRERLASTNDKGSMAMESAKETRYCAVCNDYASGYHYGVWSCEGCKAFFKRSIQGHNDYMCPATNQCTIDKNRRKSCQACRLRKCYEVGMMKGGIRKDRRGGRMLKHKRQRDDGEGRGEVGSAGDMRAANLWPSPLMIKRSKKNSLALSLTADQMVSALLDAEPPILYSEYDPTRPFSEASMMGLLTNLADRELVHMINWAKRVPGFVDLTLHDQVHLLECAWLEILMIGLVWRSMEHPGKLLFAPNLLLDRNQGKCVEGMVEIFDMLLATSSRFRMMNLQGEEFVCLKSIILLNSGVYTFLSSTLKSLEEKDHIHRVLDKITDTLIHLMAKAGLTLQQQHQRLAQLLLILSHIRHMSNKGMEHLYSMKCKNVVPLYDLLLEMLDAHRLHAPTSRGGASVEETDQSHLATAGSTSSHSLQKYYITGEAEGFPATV
Method: MCF-7 cells were adjusted to a concentration of 200,000 cells per mL in RPMI containing 10% charcoal-stripped FBS and 20 mM HEPES. 16 microliters of the cell suspension (3200 cells) was added to each well of a poly-D-lysine 384 well plate, and the cells were incubated overnight to allow the cells to adhere. The following day an eleven point, serial semilog dilution of each compound was added to the cells in 16 μL at a final concentration ranging from 0.3-0.000003 μM. At 4 or 24 hr post compound addition, the cells were fixed (10% formalin in PBS) for 20 minutes. Cells were permeablized in PBS 0.1% Triton and blocked with LICOR blocking buffer (50 μl/well, 90′). The wells were then incubated overnight at 4° C. with SP1 rabbit monoclonal Ab (Thermo Scientific) diluted 1:1000 in LICOR blocking buffer/0.1% Tween-20. Wells which were treated with blocking buffer with Tween but no antibody were used as a background control. Wells were washed with 0.1% Tween-20/PBS and then incubated in goat anti-rabbit IRDye™ 800 CW (LICOR Inc.; 1:1000) and DRAQ5 DNA dye (1:2000 for 2 mM stock) diluted in LICOR blocking buffer containing 0.1% Tween-20 and 0.01% SDS for 60 minutes. Cells were washed (50 μl/well, 5′ each) in 0.1% Tween-20/PBS. Plates were scanned on a LICOR Odyssey infrared imaging system. Integrated intensities in the 800 nm channel and 700 nm channel were measured to determine levels of ER and DNA respectively. Percent ER levels were determined as follows: (Integrated intensity 800 nm sample/integrated intensity 700 nm sample)/(Integrated intensity 800 nm untreated cells/integrated intensity 700 nm untreated cells)×100=% ER levels.

[3] = MCF-7 cells, 5 days' compound exposure, CellTiter-Glo

IC50 [1] [nM] | SMILES | IC50 [1, 3] [nM] | MCF7 Viability Assay Max Response [1, 3] | Emax [2] [%]
 | CCN(CCOc1ccc(C2Oc3ccc(O)cc3C(C)=C2c2cccc(O)c2)cc1)CCC(F)(F)F (stereo not drawn) [Example 25, 2-(4-(2-(Ethyl(3,3,3-trifluoropropyl)amino)ethoxy)phenyl)-3-(3-hydroxyphenyl)-4-methyl-2H-chromen-6-ol] | > 1 | + (a single % value < 50%) | < 60
 | CC1=C(c2cccc(O)c2)C(c2ccc(OCCN3CCC[C@@H](CF)C3)cc2)Oc2ccc(O)cc21 (stereo partly drawn) [Example 20, 2-(4-(2-((R)-3-(Fluoromethyl)piperidin-1-yl)ethoxy)phenyl)-3-(3-hydroxyphenyl)-4-methyl-2H-chromen-6-ol] | < 1 | + (a single % value < 50%) | < 60
 | CC1=C(c2ccc(F)c(O)c2)C(c2ccc(OC[C@H](C)N3CC[C@@H](CF)C3)cc2)Oc2ccc(O)cc21 (stereo partly drawn) [Example 11, 3-(4-Fluoro-3-hydroxyphenyl)-2-(4-((S)-2-((R)-3-(fluoromethyl)pyrrolidin-1-yl)propoxy)phenyl)-4-methyl-2H-chromen-6-ol] | < 1 | ++ (a single % value ≧ 50%) | > 85
> 1 | CC1=C(c2cccc(O)c2)[C@@H](c2ccc(OC[C@H](C)N3CC[C@@H](CF)C3)cc2)Oc2ccc(O)cc21 (single isomer, unassigned) [Example 3a] |  | ++ (a single % value ≧ 50%) | > 85
> 1 | CC1=C(c2cccc(O)c2)C(c2ccc(OCCN3CCC[C@H]3CF)cc2)Oc2ccc(O)cc21 (stereo partly drawn) [Example 18, 2-(4-(2-((S)-2-(Fluoromethyl)pyrrolidin-1-yl)ethoxy)phenyl)-3-(3-hydroxyphenyl)-4-methyl-2H-chromen-6-ol] |  | ++ (a single % value ≧ 50%) | 60 to 85
 | Cc1c(-c2ccc(O)cc2)n(Cc2ccc(OCCN3CC[C@@H](CF)C3)cc2)c2ccc(O)cc12 [Example 28, (R)-1-(4-(2-(3-(Fluoromethyl)pyrrolidin-1-yl)ethoxy)benzyl)-2-(4-hydroxyphenyl)-3-methyl-1H-indol-5-ol] | < 1 | ++ (a single % value ≧ 50%) | > 85
> 1 | CC1=C(c2cccc(O)c2)[C@@H](c2ccc(OCCN3CC[C@@H](CF)C3)cc2)Oc2ccc(O)cc21 (single isomer, unassigned) [Example 2a] |  | ++ (a single % value ≧ 50%) | > 85
 | CC1=C(c2cccc(O)c2)C(c2ccc(OCCN(C)CCCF)cc2)Oc2ccc(O)cc21 (stereo not drawn) [Example 22, 2-(4-(2-((3-Fluoropropyl)(methyl)amino)ethoxy)phenyl)-3-(3-hydroxyphenyl)-4-methyl-2H-chromen-6-ol] | < 1 | + (a single % value < 50%) | < 60
< 1 | CC1=C(c2cccc(O)c2)[C@H](c2ccc(OC[C@H](C)N3CC[C@@H](CF)C3)cc2)Oc2ccc(O)cc21 (single isomer, unassigned) [Example 3b] |  | ++ (a single % value ≧ 50%) | > 85
 | CC1=C(c2cc(O)ccc2F)C(c2ccc(OC[C@H](C)N3CC[C@@H](CF)C3)cc2)Oc2ccc(O)cc21 (stereo partly drawn) [Example 14, 3-(2-Fluoro-5-hydroxyphenyl)-2-(4-((S)-2-((R)-3-(fluoromethyl)pyrrolidin-1-yl)propoxy)phenyl)-4-methyl-2H-chromen-6-ol] | < 1 | ++ (a single % value ≧ 50%) | > 85
 | CC1=C(c2ccc(F)cc2)C(c2ccc(OC[C@H](C)N3CC[C@@H](CF)C3)cc2)Oc2ccc(O)cc21 (stereo partly drawn) [Example 27] | > 1 | ++ (a single % value ≧ 50%) | > 85
 | CC1=C(c2cc(O)cc(F)c2)C(c2ccc(OCCN3CC[C@@H](CF)C3)cc2)Oc2ccc(O)cc21 (stereo partly drawn) [Example 10, 3-(3-Fluoro-5-hydroxyphenyl)-2-(4-(2-((R)-3-(fluoromethyl)pyrrolidin-1-yl)ethoxy)phenyl)-4-methyl-2H-chromen-6-ol] | < 1 | ++ (a single % value ≧ 50%) | > 85
